In patent EP3067369A1, “Methods and compositions for the treatment of anti-angiogenic resistant cancer” (Institut d'Investigació Biomèdica de Bellvitge (IDIBELL), priority 2015, dated 2016):
“Also recorded” adds a separate entry of the source.

Experiments:
REN 50 cells = test: Effectiveness experiment: REN 50 renal tumors implanted in mice (tumor volume/weight, CD31 vascular density, necrosis); assay type: in vivo; conditions: for vascular density / tumor vasculature (anti-CD31 immunohistochemistry) / tumor weight and volume / percentage of necrosis: REN 50 tumors; for vascular density / tumor vasculature (anti-CD31 immunohistochemistry) / percentage of necrosis: compared to the control group; for vascular density / tumor vasculature (anti-CD31 immunohistochemistry): Figures 5 and 6; for tumor weight and volume: continuous administration; for percentage of necrosis: hematoxylin-eosin sections, Figure 7
Procedure: An effectiveness experiment was performed according to the following scheme: tumors of about 2 mm^3 size were implanted in mice, and the tumors were allowed to develop for 20 days (to a size of about 750 mm^3). The time from tumor development to death was measured as the anti-angiogenic response.
7 mice were implanted per treatment group. REN 50 cells were implanted. Treatment started when mice developed tumors with a volume tumor of about 750 mm^3, and lasted for three weeks. Table 2. Treatment groups
The inventors then analyzed whether these inhibitors produced any effect at the level of tumor vasculature by conducting in immunohistochemistry, using an anti-CD31 antibody as a marker of endothelial cells.
Hematoxylin-eosin stained paraffin sections of tumors obtained from mice from the different treatment groups were analyzed in order to evaluate the degree of necrosis.

primary tumor REN 28 = test: Long-term survival / anti-angiogenic resistance experiment: tumors from primary tumor REN 28 in mice; assay type: in vivo
From the text: The inventors assessed next the effect of therapy with PD-ECGF inhibitors in a long term survival experiment, wherein the tumors are able to regrow (resistance) and wherein PD-ECGF overexpression has been observed.
A survival experiment was followed, wherein the drugs previously tested on the primary tumor from REN 28 were continuously administered. This tumor line was selected because the inventors this tumor is able to generate an anti-angiogenic resistance phenotype with after treatment with bevacizumab and DC101.
Again, tumors of about 2 mm^3 size were implanted in mice, and the tumors were allowed to develop for 30 days (with a size of about 1,000 mm^3). The time from tumor development to death was measured as the anti-angiogenic resistance.
Tumors were measured and weighted; samples were collected for further processing. Treatments were stopped or changed on day 15. Table 3. Treatment groups.
Several treatment strategies were followed in anti-VEGFR2 resistant tumors: • 1. stop the anti-VEGFR2 (DC101) treatment just when the tumors begin to becomes resistant, and verify if said tumors are able to regrow with or without vasculature (represented as "DC101→R→OFF" treatment group), • 2. change the VEGFR2 inhibition therapy by the inhibition of another pathway (PD-ECGF) (represented as "DC101→R→AEAC" treatment group), • 3. combine the VEGFR2-inhibition therapy (DC101) and the PD-ECGF-inhibition therapy ([…]) (represented as "DC101→R→DC101 1 + AEAC" treatment group).

[1] = AEAC added to DC101 after development of resistance (DC101→R→DC101 + AEAC)
[2] = therapy changed from DC101 to AEAC at onset of resistance (DC101→R→AEAC)

Structure (SMILES)	vascular density / tumor vasculature (anti-CD31 immunohistochemistry) (REN 50 cells)	tumor weight and volume (REN 50 cells)	percentage of necrosis (REN 50 cells)	number of vessels (labeled with anti-CD31 antibody) (REN 50 cells; after 21 days of treatment, Figure 6)	number of vessels / vascular density (primary tumor REN 28; [1])	toxicity to animals (primary tumor REN 28; [1])	tumor size / tumor volume (primary tumor REN 28; [1])	average and total survival (primary tumor REN 28; REN 28, continuous treatment, compared to control mice, Figure 8)	survival (primary tumor REN 28; [2])	time of tumor progression (primary tumor REN 28; [2])	number of vessels (labeled with anti-CD31 antibody) (REN 50 cells; after 15 days of treatment, Figure 5)
NCCNc1[nH]c(=O)[nH]c(=O)c1Cl [AEAC, 6-(2-aminoethyl)amino-5-chlorouracil]	decreased tumor vasculature	decreased tumor weight and volume	increased tumor necrosis	decrease in the number of vessels	decreased vascular density	toxic	small tumoral volume; also recorded: sustained effect on tumor volume reduction	increased average and total survival	increased survival	delayed the time of tumor progression	
Oc1ncnc2c1ncn2[C@@H]1O[C@H](COC(c2ccccc2)(c2ccccc2)c2ccccc2)[C@@H](O)[C@H]1O [KIN 59, 5'-O-trityl-inosine]	decreased tumor vasculature	decreased tumor weight and volume	increased tumor necrosis								decrease in the number of vessels
